This experiment deals with T1, wild-type (WT) P450 BM3 heme domain (Priestia megaterium, UniProt P14779).
T1 sequence (P14779 1-464 limits assumed): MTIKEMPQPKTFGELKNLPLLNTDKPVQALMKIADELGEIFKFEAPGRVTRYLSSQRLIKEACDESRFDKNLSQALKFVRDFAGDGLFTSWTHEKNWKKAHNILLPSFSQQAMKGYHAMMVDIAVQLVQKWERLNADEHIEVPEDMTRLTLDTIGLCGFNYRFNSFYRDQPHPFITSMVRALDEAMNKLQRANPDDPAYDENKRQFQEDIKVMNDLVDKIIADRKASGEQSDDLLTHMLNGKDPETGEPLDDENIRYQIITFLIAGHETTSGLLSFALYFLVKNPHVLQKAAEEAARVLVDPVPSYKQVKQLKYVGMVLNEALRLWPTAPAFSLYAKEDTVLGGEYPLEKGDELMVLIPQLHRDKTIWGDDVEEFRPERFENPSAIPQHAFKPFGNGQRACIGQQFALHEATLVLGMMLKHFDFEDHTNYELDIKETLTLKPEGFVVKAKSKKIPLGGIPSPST
Nature of the experiment: optical titration, type-I difference spectra. Format: binding.

As for `CCCCCCCCCCCC(=O)O` [LA, lauric acid], the Kd was 280 ± 25 µM.

The values above are taken from PMC3486690 (Journal of inorganic biochemistry, 2012).
